Measurements from patent US20060083830A1, “Polylysine-containing food additive and acidic adjuvant” (priority 2004, published 2006).
Values joined by “and” are separate entries in the source; they are usually repeats but may differ in a detail not shown here. Equal entries are not always repeated.

Assays:
many bacteria = details: Shima et al., 1984; Hiraki, 2000; cited from earlier work
Listeria monocytogenes = experiment: L. monocytogenes on cooked ground turkey balls blended with ε-polylysine, with or without 5 second acidic adjuvant spray, incubated at 8° C., CFU determination; assay type: cell-based; details: for Log Reduction: vs control
Experimental: Four groups of 20 g ground uncooked turkey balls were prepared, with 54 balls prepared per group. […] Groups B-D were blended with varying amounts of ε-polylysine (“ε-PL”). Final concentrations of ε-polylysine within the turkey balls were:
After preparation, all meatballs were placed on baking sheets and baked in a conventional oven at 350° F. for 20 minutes. After baking, the meatballs were packaged separately and stored at 4° C.
The mixture was further diluted 1:5000 times with sterile saline to produce a suspension for use. […] 20 microliters of the Listeria monocytogenes suspension was inoculated onto the exterior of each turkey ball. The turkey balls were incubated at room temperature for 30 min post-inoculation to allow bacteria to attach.
Each group of meatballs (54 per group) was divided into two groups of 27 meatballs and labeled as control or treated meatballs as follows: AC, AT, BC, BT, CC, CT, DC and DT, respectively. Control meatballs labeled AC, BC, CC, and DC were sprayed for 5 seconds with sterile water. Treated meatballs labeled AT, BT, CT and DT were sprayed for 5 seconds with the acidic adjuvant prepared in Example 4 above (Safe2O®brandRTE 01, Mionix Corporation, Rocklin, Calif.) diluted 2 parts water to 1 part solution, having a final pH of about 1.5. After the spray treatment, the meatballs were packaged individually, vacuum sealed and incubated at 8° C.
The microbiological assay was performed after 24 hours, 1 week, 2 weeks, 3 weeks, and 4 weeks. After each designated time period had passed, three bags from each group of meat balls were unpacked, transferred to a stomacher bag along with 20 ml of sterile 0.1% peptone water. Each meatball was hand crushed and stomached at high speed for 2 minutes.

[1] = rats, two generations; Neda et al., 1999; cited from earlier work

For “poly(imino(2-amino-1-oxo-1,6-hexanediyl)) [ε-PL]”, the “minimum inhibitory concentration (MIC) for the growth of many bacteria” value (many bacteria) is listed as “below 100 μg mL^−1”, the “average Log Value” (Listeria monocytogenes; 1000 ppm ε-PL, after 1 week) is listed as 5.38 and the “average of CFU/g” value (Listeria monocytogenes; 1000 ppm ε-PL, after 1 week) is listed as 2.41E+05 CFU/g. For the same substance, the “Log Reduction” value (Listeria monocytogenes; 1000 ppm ε-PL, after 1 week) was 2.99, the “average Log Value” (Listeria monocytogenes; 1000 ppm ε-PL, after 2 weeks) was 4.76 and the “average of CFU/g” value (Listeria monocytogenes; 1000 ppm ε-PL, after 2 weeks) was 5.72E+04 CFU/g. For the same substance, the “Log Reduction” value (Listeria monocytogenes; 1000 ppm ε-PL, after 2 weeks) was 4.09, the “average Log Value” (Listeria monocytogenes; 1000 ppm ε-PL, after 3 weeks) was 5.94 and the “average of CFU/g” value (Listeria monocytogenes; 1000 ppm ε-PL, after 3 weeks) was 8.75E+05 CFU/g. For the same substance, the “average Log Value” (Listeria monocytogenes; 1000 ppm ε-PL, after 4 weeks) was 6.67, the “average of CFU/g” value (Listeria monocytogenes; 1000 ppm ε-PL, after 4 weeks) was 4.64E+06 CFU/g and the “Log Reduction” value (Listeria monocytogenes; 1000 ppm ε-PL, after 4 weeks) was 1.91. The “average Log Value” (Listeria monocytogenes; 1000 ppm ε-PL, after 24 hours) was 2.22, the “average of CFU/g” value (Listeria monocytogenes; 1000 ppm ε-PL, after 24 hours) was 1.67E+02 CFU/g and the “Log Reduction” value (Listeria monocytogenes; 1000 ppm ε-PL, after 24 hours) was 1.48. The “average Log Value” (Listeria monocytogenes; 2000 ppm ε-PL, after 1 week) was 1.40, the “average of CFU/g” value (Listeria monocytogenes; 2000 ppm ε-PL, after 1 week) was 2.53E+01 CFU/g and the “Log Reduction” value (Listeria monocytogenes; 2000 ppm ε-PL, after 1 week) was 6.97. For the same substance, the “average Log Value” (Listeria monocytogenes; 2000 ppm ε-PL, after 2 weeks) was 4.27, the “average of CFU/g” value (Listeria monocytogenes; 2000 ppm ε-PL, after 2 weeks) was 1.88E+04 CFU/g and the “Log Reduction” value (Listeria monocytogenes; 2000 ppm ε-PL, after 2 weeks) was 4.57. For the same substance, the “average Log Value” (Listeria monocytogenes; 2000 ppm ε-PL, after 3 weeks) was 2.95, the “average of CFU/g” value (Listeria monocytogenes; 2000 ppm ε-PL, after 3 weeks) was 8.96E+02 CFU/g and the “Log Reduction” value (Listeria monocytogenes; 2000 ppm ε-PL, after 3 weeks) was 5.33. The “average Log Value” (Listeria monocytogenes; 2000 ppm ε-PL, after 4 weeks) was 3.86, the “average of CFU/g” value (Listeria monocytogenes; 2000 ppm ε-PL, after 4 weeks) was 7.18E+03 CFU/g and the “Log Reduction” value (Listeria monocytogenes; 2000 ppm ε-PL, after 4 weeks) was 4.72. The “average Log Value” (Listeria monocytogenes; 2000 ppm ε-PL, after 24 hours) was 1.36, the “average of CFU/g” value (Listeria monocytogenes; 2000 ppm ε-PL, after 24 hours) was 2.27E+01 CFU/g and the “Log Reduction” value (Listeria monocytogenes; 2000 ppm ε-PL, after 24 hours) was 2.35. For the same substance, the “average Log Value” (Listeria monocytogenes; 3000 ppm ε-PL, after 1 week) was <0.94, the “average of CFU/g” value (Listeria monocytogenes; 3000 ppm ε-PL, after 1 week) was <8.67E+00 CFU/g and the “Log Reduction” value (Listeria monocytogenes; 3000 ppm ε-PL, after 1 week) was >7.43. For the same substance, the “average Log Value” (Listeria monocytogenes; 3000 ppm ε-PL, after 2 weeks) was <2.21, the “average of CFU/g” value (Listeria monocytogenes; 3000 ppm ε-PL, after 2 weeks) was <1.61E+02 CFU/g and the “Log Reduction” value (Listeria monocytogenes; 3000 ppm ε-PL, after 2 weeks) was <6.64. The CFU/g (Listeria monocytogenes; 3000 ppm ε-PL, after 3 weeks) was <2.00E+00 CFU/g, the “average Log Value” (Listeria monocytogenes; 3000 ppm ε-PL, after 3 weeks) was <0.30 and the “average of CFU/g” value (Listeria monocytogenes; 3000 ppm ε-PL, after 3 weeks) was <2.00E+00 CFU/g. For the same substance, the “Log Reduction” value (Listeria monocytogenes; 3000 ppm ε-PL, after 3 weeks) was <7.98, the “average Log Value” (Listeria monocytogenes; 3000 ppm ε-PL, after 4 weeks) was >3.56 and the “average of CFU/g” value (Listeria monocytogenes; 3000 ppm ε-PL, after 4 weeks) was >3.61E+03 CFU/g. The “Log Reduction” value (Listeria monocytogenes; 3000 ppm ε-PL, after 4 weeks) was <5.02, the CFU/g (Listeria monocytogenes; 3000 ppm ε-PL, after 24 hours) was 1.40E+01 CFU/g and 1.60E+01 CFU/g and 1.00E+01 CFU/g and the “average Log Value” (Listeria monocytogenes; 3000 ppm ε-PL, after 24 hours) was 1.12. For the same substance, the “average of CFU/g” value (Listeria monocytogenes; 3000 ppm ε-PL, after 24 hours) was 1.33E+01 CFU/g, the “Log Reduction” value (Listeria monocytogenes; 3000 ppm ε-PL, after 24 hours) was 2.58 and the “controlling the outgrowth of Listeria, ε-PL alone vs secondary acidic adjuvant spray for 5 sec” value (Listeria monocytogenes; Tables 2.1-2.5) was “more effective in controlling the outgrowth of Listeria than the effect of a secondary spray application of the acidic adjuvant”. For the same substance, the “safety as a food additive” value [1] was “no adverse reproductive toxological effects”.
